Data: patent US20220031680A1, “Donecopride As Neuroprotective Agent In the Treatment of Neurodegenerative Diseases” (priority 2018, published 2022)
“And” between values parts separate entries of the source, which are not always exact repeats. Identical values can stand only once.

System: rat primary cortical neurons after glutamate injury
Assay: Survival and neurite network of primary cortical neurons after glutamate injury
Format: cell-based
Conditions: glutamate 20 μM 20 min; for concentrations significantly protecting cortical neurons from death: compound 1 h before and 48 h after; for concentration of maximal effect on neurite network: cortical neurons
Method: The present study assesses the neuroprotective effect of MR36014 and MR33583 (at 4 concentrations) in rat primary cortical neurons after glutamate injury. The test compounds were pre-incubated for 1 hour before glutamate application (20 μM for 20 min). The neuroprotective effect (survival and neurite network) of test compounds were investigated.
Rat cortical neurons were cultured as described by Callizot et al. (2013) J. Neurosci. Res. 91:706-716. Pregnant female rat (Wistar) of 15 days of gestation were killed using a deep anesthesia with CO2 chamber and a cervical dislocation. Briefly, fetuses were collected and immediately placed in ice-cold L15 Leibovitz medium with a 2% penicillin (10,000 U/mL) and streptomycin (10 mg/mL) solution (PS) and 1% bovine serum albumin (BSA). Cortex were treated for 20 min at 37° C. with a trypsin-EDTA solution at a final concentration of 0.05% trypsin and 0.02% EDTA. The dissociation was stopped by addition of Dulbecco's modified Eagle's medium (DMEM) with 4.5 g/l of glucose, containing DNAse I grade II (final concentration 0.5 mg/ml) and 10% fetal calf serum (FCS). Cells were mechanically dissociated by three forced passages through the tip of a 10-ml pipette. Cells were then centrifuged at 515×g for 10 min at 4° C. The supernatant was discarded, and the pellet was resuspended in a defined culture medium consisting of Neurobasal medium with a 2% solution of B27 supplement, 2 mmol/I L-glutamine, 2% PS solution, and 10 ng/ml brain-derived neurotrophic factor (BDNF). Viable cells were counted in a Neubauer cytometer, using the trypan blue exclusion test.
The cells were seeded at a density of 25,000 per well in 96-well plates precoated with poly-L-lysine and were cultured at 37° C. in an air (95%)-CO2 (5%) incubator.
Pre-incubation: On day 13 of culture, the compounds were dissolved in the culture medium and pre-incubated with primary cortical neurons for 1 hour, before glutamate exposure.
Injury: 1 hour after test compound incubation, glutamate was added to a final concentration of 20 μM diluted in control medium still in presence of the test compounds for 20 min. After 20 min, glutamate was washed out and fresh culture medium with the test compounds were added for additional 48 hours.
Test compounds were tested in 96-well plate (n=6 culture wells per condition). The following conditions were assessed: […]
The following read-outs will be investigated: • The total neuron survival (MAP-2 positive, number), (data will be expressed into mean number of neurons of 30 pictures per well). • The total neurite network (MAP-2 in μm), (data will be expressed into mean of neurons of 30 pictures per well).

SMILES | concentrations significantly protecting cortical neurons from death | concentration of maximal effect on neurite network
COc1cc(N)c(F)cc1C(=O)CCC1CCN(CC2CCCC2)CC1 [MR33583] | 50 nM and 100 nM | 50 nM
COc1cc(N)c(F)cc1C(=O)CCC1CCN(CC2CCCCCC2)CC1 [MR36014] | 1 nM | 1 nM
